Assay results: patent EP0282456A2, “Mylbemycin derivatives to combat parasites on animals” (CIBA-GEIGY AG, priority 1987, dated 1988)

Legend:
[1] = test system: Li-Larven von Lucilia sericata; test: Activity against L1 larvae of Lucilia sericata (mortality in larval culture medium); conditions: 100 ppm active substance in larval medium; about 30 L1 larvae; mortality after 4 days
Procedure: 1 ml einer wässrigen Suspension der zu prüfenden Aktivsubstanz werden so mit 3 ml eines speziellen Larvenzuchtmediums bei ca. 50° C vermischt, dass ein Homogenisat von wahlweise 250 ppm oder 100 ppm Wirkstoffgehalt entsteht. In jede Reagenzglas-Probe werden ca. 30 Lucilia-Larven (L1) eingesetzt. Nach 4 Taben wird die Mortalitätsrate bestimmt. Verbindungen der Formel I aus den Tabellen, wie z.B. die Verbindungen H4 und H5 erzielten mit 100 ppm eine Wirkung von 100%.

Dermanyssus gallinae = test: Miticidal activity against Dermanyssus gallinae; conditions: 100 ppm test solution; about 200 mites; observed for three days
Procedure: 2 bis 3 ml einer Testlösung (100, 10, 1 und 0,1 ppm Aktivsubstanz) werden in einen nach oben offenen Glasbehälter gegeben und ca. 200 Milben in unterschiedlichen Entwicklungsstadien in diesen Behälter eingesetzt. Der Glasbehälter wird mit einem Wattebausch verschlossen und 10 Minuten gleichmässig, bis zur vollständigen Benetzung der Milben geschüttelt. Danach wird der Behälter umgekehrt hingestellt, bis die überschüssige Testlösung von der Watte aufgesogen ist. Der Behälter wird erneut gekehrt und die behandelten Milben zur Evaluierung der Wirksamkeit der Testsubstanzen drei Tage unter Laborbedingungen beobachtet, wobei die Mortalität als Massstab für Wirksamkeit herangezogen wird. Verbindungen aus den Tabellen, wie z.B. die Verbindungen H4 und H5 zeigen bei 100 ppm eine Wirkung von 1000/0.

[2] = test system: Haemonchus contortus und Trichostrongylus colubriformis; test: Test on sheep infected with nematodes (worm egg count in faeces); assay type: in vivo, Schaf; conditions: single dose 0,2 mg/kg by stomach tube or intraruminal injection, compared with untreated infected controls
Procedure: Der Wirkstoff wird als Suspension formuliert mit einer Magensonde oder durch Injektion in den Pansen eines Schafes gegeben, das mit Haemonchus contortus und Trychostrongylus colubriformis künstlich infiziert worden ist. Pro Dosis werden 1 bis 3 Tiere verwendet. Jedes Schaf wird nur einmal mit einer einzigen Dosis behandelt, und zwar wahlweise mit 0,5 mg oder 0,2 mg/kg Körpergewicht. Die Evaluierung erfolgt durch Vergleich der Anzahl der vor und nach Behandlung im Kot der Schafe ausgeschiedenen Wurmeier. Gleichzeitig und gleichartig infizierte aber unbehandelte Schafe dienen als Kontrolle.

13-Vinyl-milbemycin A4 [H4]
Wirkung (Mortalitätsrate) [1]: 100% | Wirkung (Mortalität) (Dermanyssus gallinae): 1000/0 | Nematodenbefall (Reduktion der Wurmeier im Kot) [2]: keinen Nematodenbefall

13ß-Vinyl-milbemycin A4 [H5]
Wirkung (Mortalitätsrate) [1]: 100% | Wirkung (Mortalität) (Dermanyssus gallinae): 1000/0 | Nematodenbefall (Reduktion der Wurmeier im Kot) [2]: keinen Nematodenbefall
